Values joined by “and” are separate entries in the source; they are usually repeats but may differ in a detail not shown here. Equal entries are not always repeated. Where two headings read alike, the source gives them in different places.
Tests used:
[1] = Level of impurities in dependency on pH and repeated autoclaving (HPLC), Example 6; type: physicochemical
Procedure: The appropriate pH value was adjusted by using sodium hydroxide solution (1 M sodium hydroxide) or diluted hydrochloric acid (1 M hydrochloric acid). […] HP Zorbax SB-C18, 3.5 μm • Column material: stainless steel • Column length: 150 mm • Column internal diameter: 4.6 mm • Equilibration of the column: Column must be rinsed with mobile phase B (% B=25) for at least 60 minutes at a flow rate of 1 mL/min prior to sample injection. • Storage of the column: Column can be stored in acetonitrile/water=20/80 (v/v) Mobile Phase A […] The mobile phase was filtered through a 1.5 μm filter. Typically, add 500 mL of mobile phase A to 500 mL of acetonitrile. Mix and degas. [table] Procedure • Flow rate: 1 mL/min • Injection volume: 40 μl • Auto sampler temperature: Set autosampler temperature at +12° C. • Column temperature: […]

[2] = Level of impurities in dependency on Otamixaban concentration and autoclaving (HPLC), Example 7; type: physicochemical; conditions: autoclaving
Description: The appropriate pH value was adjusted by using sodium hydroxide solution (1 M sodium hydroxide) or diluted hydrochloric acid (1 M hydrochloric acid).

[3] = Level of impurities in dependency on pH and storage time (HPLC), Example 8; type: physicochemical; conditions: 40° C./75% RH
Procedure: The appropriate pH value was adjusted by using sodium hydroxide solution (1 M sodium hydroxide) or diluted hydrochloric acid (1 M hydrochloric acid). The prepared vials were autoclaved one time and were stored at 40° C. and 75% RH (relative humidity).

models of thrombosis [4] = conditions: rodent; cited from earlier work
models of thrombosis [5] = conditions: canine; cited from earlier work
models of thrombosis [6] = conditions: porcine; cited from earlier work
acute coronary syndrome = conditions: humans; cited from earlier work
[7] = tested on: prothrombin fragments 1+2; conditions: dose-ranging clinical trial; highest dose regimen; cited from earlier work
factor Xa = molecular target: T1, factor Xa (Homo sapiens, UniProt P00742); conditions: patients with stable coronary artery disease; cited from earlier work
T1 construct: host or cells: blood of patients (in vivo, clinical trial)

[8] = pH 2.5, number of autoclaving 0
[9] = pH 2.5, number of autoclaving 1
[10] = pH 3.2, number of autoclaving 0
[11] = pH 3.2, number of autoclaving 1
[12] = pH 3.2, number of autoclaving 3
[13] = pH 3.5, number of autoclaving 0
[14] = pH 3.5, number of autoclaving 1
[15] = pH 3.7, number of autoclaving 0
[16] = pH 3.7, number of autoclaving 1
[17] = pH 3.7, number of autoclaving 3
[18] = pH 4.0, number of autoclaving 0
[19] = pH 4.0, number of autoclaving 1
[20] = pH 4.2, number of autoclaving 0
[21] = pH 4.5, number of autoclaving 0
[22] = pH 4.5, number of autoclaving 1
[23] = pH 4.7, number of autoclaving 0
[24] = pH 4.7, number of autoclaving 2

T1 sequence (P00742 235-488 limits assumed): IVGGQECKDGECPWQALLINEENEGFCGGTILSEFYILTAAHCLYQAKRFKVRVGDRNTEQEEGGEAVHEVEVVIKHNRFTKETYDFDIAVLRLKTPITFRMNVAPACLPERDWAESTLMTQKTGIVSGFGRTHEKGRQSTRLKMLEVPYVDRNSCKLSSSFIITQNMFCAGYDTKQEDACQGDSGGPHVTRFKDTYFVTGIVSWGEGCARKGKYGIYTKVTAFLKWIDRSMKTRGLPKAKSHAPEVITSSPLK
T1 sequence (P00742 41-179 partner limits assumed): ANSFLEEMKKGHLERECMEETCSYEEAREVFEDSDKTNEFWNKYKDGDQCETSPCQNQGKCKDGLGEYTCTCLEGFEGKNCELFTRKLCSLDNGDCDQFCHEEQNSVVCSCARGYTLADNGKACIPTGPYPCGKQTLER

COC(=O)[C@H](Cc1cccc(C(=N)N)c1)[C@@H](C)NC(=O)c1ccc(-c2cc[n+]([O-])cc2)cc1 (mixture of isomers) [Otamixaban, Methyl (2R,3R)-2-{3-[amino(imino)methyl]benzyl}-3-{[4-(1-oxidopyridin-4-yl)benzoyl]amino}butanoate]
Increase of Formula II (carbamimidoyl-benzyl butyric acid) [1, 8]: 0.10% | Increase of Formula III (carbamoyl-benzyl butyric acid methyl ester) [1, 8]: 0.39% | Increase of Formula II (carbamimidoyl-benzyl butyric acid) [1, 9]: 0.33% | Increase of Formula III (carbamoyl-benzyl butyric acid methyl ester) [1, 9]: 0.71% | Increase of Formula II (carbamimidoyl-benzyl butyric acid) ([1]; pH 2.5, number of autoclaving 2): 0.56% | Increase of Formula III (carbamoyl-benzyl butyric acid methyl ester) ([1]; pH 3.0, number of autoclaving 0): 0.39% | Increase of Formula III (carbamoyl-benzyl butyric acid methyl ester) ([1]; pH 3.0, number of autoclaving 1): 0.74% | Increase of Formula II (carbamimidoyl-benzyl butyric acid) [1, 10]: 0.08% | Increase of Formula III (carbamoyl-benzyl butyric acid methyl ester) [1, 10]: 0.39% | Increase of Formula II (carbamimidoyl-benzyl butyric acid) [1, 11]: 0.15% | Increase of Formula III (carbamoyl-benzyl butyric acid methyl ester) [1, 11]: 0.76% | Increase of Formula II (carbamimidoyl-benzyl butyric acid) ([1]; pH 3.2, number of autoclaving 2): 0.21% | Increase of Formula II (carbamimidoyl-benzyl butyric acid) [1, 12]: 0.27% | Increase of Formula III (carbamoyl-benzyl butyric acid methyl ester) [1, 12]: 1.50% | Increase of Formula II (carbamimidoyl-benzyl butyric acid) [1, 13]: 0.08% | Increase of Formula III (carbamoyl-benzyl butyric acid methyl ester) [1, 13]: 0.39% | Increase of Formula II (carbamimidoyl-benzyl butyric acid) [1, 14]: 0.12% | Increase of Formula III (carbamoyl-benzyl butyric acid methyl ester) [1, 14]: 0.81% | Increase of Formula II (carbamimidoyl-benzyl butyric acid) ([1]; pH 3.5, number of autoclaving 2): 0.17% | Increase of Formula II (carbamimidoyl-benzyl butyric acid) ([1]; pH 3.5, number of autoclaving 3): 0.21% | Increase of Formula II (carbamimidoyl-benzyl butyric acid) [1, 15]: 0.08% | Increase of Formula III (carbamoyl-benzyl butyric acid methyl ester) [1, 15]: 0.39% | Increase of Formula II (carbamimidoyl-benzyl butyric acid) [1, 16]: 0.11% and 0.12% | Increase of Formula III (carbamoyl-benzyl butyric acid methyl ester) [1, 16]: 0.87% and 0.84% | Increase of Formula II (carbamimidoyl-benzyl butyric acid) ([1]; pH 3.7, number of autoclaving 2): 0.16% | Increase of Formula II (carbamimidoyl-benzyl butyric acid) [1, 17]: 0.20% and 0.19% | Increase of Formula III (carbamoyl-benzyl butyric acid methyl ester) [1, 17]: 1.80% | Increase of Formula II (carbamimidoyl-benzyl butyric acid) [1, 18]: 0.08% | Increase of Formula III (carbamoyl-benzyl butyric acid methyl ester) [1, 18]: 0.39% | Increase of Formula II (carbamimidoyl-benzyl butyric acid) [1, 19]: 0.12% | Increase of Formula III (carbamoyl-benzyl butyric acid methyl ester) [1, 19]: 0.95% | Increase of Formula II (carbamimidoyl-benzyl butyric acid) ([1]; pH 4.0, number of autoclaving 2): 0.16% | Increase of Formula II (carbamimidoyl-benzyl butyric acid) ([1]; pH 4.0, number of autoclaving 3): 0.19% | Increase of Formula II (carbamimidoyl-benzyl butyric acid) [1, 20]: 0.07% | Increase of Formula III (carbamoyl-benzyl butyric acid methyl ester) [1, 20]: 0.39% | Increase of Formula II (carbamimidoyl-benzyl butyric acid) ([1]; pH 4.2, number of autoclaving 1): 0.13% | Increase of Formula II (carbamimidoyl-benzyl butyric acid) ([1]; pH 4.2, number of autoclaving 2): 0.18% | Increase of Formula II (carbamimidoyl-benzyl butyric acid) ([1]; pH 4.2, number of autoclaving 3): 0.22% | Increase of Formula II (carbamimidoyl-benzyl butyric acid) [1, 21]: 0.08% | Increase of Formula III (carbamoyl-benzyl butyric acid methyl ester) [1, 21]: 0.39% | Increase of Formula II (carbamimidoyl-benzyl butyric acid) [1, 22]: 0.15% | Increase of Formula III (carbamoyl-benzyl butyric acid methyl ester) [1, 22]: 1.40% | Increase of Formula II (carbamimidoyl-benzyl butyric acid) ([1]; pH 4.5, number of autoclaving 2): 0.24% | Increase of Formula II (carbamimidoyl-benzyl butyric acid) ([1]; pH 4.5, number of autoclaving 3): 0.30% | Increase of Formula II (carbamimidoyl-benzyl butyric acid) [1, 23]: 0.08% | Increase of Formula III (carbamoyl-benzyl butyric acid methyl ester) [1, 23]: 0.39% | Increase of Formula II (carbamimidoyl-benzyl butyric acid) ([1]; pH 4.7, number of autoclaving 1): 0.20% | Increase of Formula II (carbamimidoyl-benzyl butyric acid) [1, 24]: 0.32% | Increase of Formula III (carbamoyl-benzyl butyric acid methyl ester) [1, 24]: 3.20% | Increase of Formula II (carbamimidoyl-benzyl butyric acid) ([1]; pH 4.7, number of autoclaving 3): 0.43% | dependence of Formula III level on Otamixaban concentration or vial volume [2]: independent from the concentration of Otamixaban or vial volume | Increase of Formula II (carbamimidoyl-benzyl butyric acid) ([3]; pH 2.5, storage time 0 months): 0.33% | Increase of Formula III (carbamoyl-benzyl butyric acid methyl ester) ([3]; pH 2.5, storage time 0 months): 0.71% | Increase of Formula III (carbamoyl-benzyl butyric acid methyl ester) ([3]; pH 2.5, storage time 1 months): 0.77% | Increase of Formula III (carbamoyl-benzyl butyric acid methyl ester) ([3]; pH 2.5, storage time 3 months): 0.86% | Increase of Formula II (carbamimidoyl-benzyl butyric acid) ([3]; pH 2.5, storage time 6 months): 7.10% | Increase of Formula III (carbamoyl-benzyl butyric acid methyl ester) ([3]; pH 2.5, storage time 6 months): 0.98% | Increase of Formula II (carbamimidoyl-benzyl butyric acid) ([3]; pH 3.0, storage time 0 months): 0.18% | Increase of Formula III (carbamoyl-benzyl butyric acid methyl ester) ([3]; pH 3.0, storage time 0 months): 0.74% | Increase of Formula II (carbamimidoyl-benzyl butyric acid) ([3]; pH 3.0, storage time 1 months): 0.58% | Increase of Formula III (carbamoyl-benzyl butyric acid methyl ester) ([3]; pH 3.0, storage time 1 months): 0.82% | Increase of Formula III (carbamoyl-benzyl butyric acid methyl ester) ([3]; pH 3.0, storage time 3 months): 0.96% | Increase of Formula II (carbamimidoyl-benzyl butyric acid) ([3]; pH 3.2, storage time 0 months): 0.15% | Increase of Formula III (carbamoyl-benzyl butyric acid methyl ester) ([3]; pH 3.2, storage time 0 months): 0.76% | Increase of Formula II (carbamimidoyl-benzyl butyric acid) ([3]; pH 3.2, storage time 1 months): 0.41% | Increase of Formula III (carbamoyl-benzyl butyric acid methyl ester) ([3]; pH 3.2, storage time 1 months): 0.85% | Increase of Formula II (carbamimidoyl-benzyl butyric acid) ([3]; pH 3.2, storage time 3 months): 0.93% | Increase of Formula III (carbamoyl-benzyl butyric acid methyl ester) ([3]; pH 3.2, storage time 3 months): 1.00% | Increase of Formula II (carbamimidoyl-benzyl butyric acid) ([3]; pH 3.5, storage time 0 months): 0.12% | Increase of Formula III (carbamoyl-benzyl butyric acid methyl ester) ([3]; pH 3.5, storage time 0 months): 0.81% | Increase of Formula II (carbamimidoyl-benzyl butyric acid) ([3]; pH 3.5, storage time 1 months): 0.27% | Increase of Formula III (carbamoyl-benzyl butyric acid methyl ester) ([3]; pH 3.5, storage time 1 months): 0.91% | Increase of Formula II (carbamimidoyl-benzyl butyric acid) ([3]; pH 3.5, storage time 3 months): 0.55% | Increase of Formula II (carbamimidoyl-benzyl butyric acid) ([3]; pH 3.5, storage time 6 months): 0.99% | Increase of Formula II (carbamimidoyl-benzyl butyric acid) ([3]; pH 3.7, storage time 0 months): 0.11% | Increase of Formula III (carbamoyl-benzyl butyric acid methyl ester) ([3]; pH 3.7, storage time 0 months): 0.87% | Increase of Formula II (carbamimidoyl-benzyl butyric acid) ([3]; pH 3.7, storage time 1 months): 0.22% | Increase of Formula III (carbamoyl-benzyl butyric acid methyl ester) ([3]; pH 3.7, storage time 1 months): 0.96% | Increase of Formula II (carbamimidoyl-benzyl butyric acid) ([3]; pH 3.7, storage time 3 months): 0.42% | Increase of Formula II (carbamimidoyl-benzyl butyric acid) ([3]; pH 3.7, storage time 6 months): 0.72% | Increase of Formula II (carbamimidoyl-benzyl butyric acid) ([3]; pH 4.0, storage time 0 months): 0.12% | Increase of Formula III (carbamoyl-benzyl butyric acid methyl ester) ([3]; pH 4.0, storage time 0 months): 0.95% | Increase of Formula II (carbamimidoyl-benzyl butyric acid) ([3]; pH 4.0, storage time 1 months): 0.18% | Increase of Formula II (carbamimidoyl-benzyl butyric acid) ([3]; pH 4.0, storage time 3 months): 0.32% | Increase of Formula II (carbamimidoyl-benzyl butyric acid) ([3]; pH 4.0, storage time 6 months): 0.52% | Increase of Formula II (carbamimidoyl-benzyl butyric acid) ([3]; pH 4.2, storage time 0 months): 0.13% | Increase of Formula II (carbamimidoyl-benzyl butyric acid) ([3]; pH 4.2, storage time 1 months): 0.18% | Increase of Formula III (carbamoyl-benzyl butyric acid methyl ester) ([3]; pH 4.2, storage time 1 months): 1.20% | Increase of Formula II (carbamimidoyl-benzyl butyric acid) ([3]; pH 4.2, storage time 3 months): 0.27% | Increase of Formula II (carbamimidoyl-benzyl butyric acid) ([3]; pH 4.2, storage time 6 months): 0.43% | Increase of Formula II (carbamimidoyl-benzyl butyric acid) ([3]; pH 4.5, storage time 0 months): 0.15% | Increase of Formula III (carbamoyl-benzyl butyric acid methyl ester) ([3]; pH 4.5, storage time 0 months): 1.40% | Increase of Formula II (carbamimidoyl-benzyl butyric acid) ([3]; pH 4.5, storage time 1 months): 0.20% | Increase of Formula II (carbamimidoyl-benzyl butyric acid) ([3]; pH 4.5, storage time 3 months): 0.30% | Increase of Formula II (carbamimidoyl-benzyl butyric acid) ([3]; pH 4.5, storage time 6 months): 0.44% | Increase of Formula II (carbamimidoyl-benzyl butyric acid) ([3]; pH 4.7, storage time 0 months): 0.20% | Increase of Formula II (carbamimidoyl-benzyl butyric acid) ([3]; pH 4.7, storage time 1 months): 0.25% | Increase of Formula II (carbamimidoyl-benzyl butyric acid) ([3]; pH 4.7, storage time 3 months): 0.36% | Increase of Formula II (carbamimidoyl-benzyl butyric acid) ([3]; pH 4.7, storage time 6 months): 0.52% | efficacy in models of thrombosis (models of thrombosis [4]): highly efficacious | efficacy in models of thrombosis (models of thrombosis [5]): highly efficacious | efficacy in models of thrombosis (models of thrombosis [6]): highly efficacious | clinical findings: efficacy, safety, tolerability (acute coronary syndrome): efficacious, safe and well tolerated | reduction of prothrombin fragments 1+2 versus unfractionated heparin [7]: reduced prothrombin fragments 1+2 significantly more than unfractionated heparin | factor Xa inhibition in patients (factor Xa): dose-dependent, rapid direct factor Xa inhibition

Source: patent US9993464B2 (SANOFI, priority 2011, dated 2018)
